Values after ≈ are worked out from the molar mass of the structure shown. Like-named read-outs stand apart in the source and are kept apart here.
Legend:
Vibrio cholerae SG24 (1) = test: Broth microdilution MIC/MBC; type: cell-based; conditions: for MBC / MIC: Vibrio cholerae; for MIC: 24 h; for MBC/MIC: Vibrio cholerae SG24 (1)
Procedure: (§1) A total of six bacterial strains were tested for their susceptibility to compounds and these strains were taken from our laboratory collection (kindly provided by Dr. T. Ramamurthy, NICED, Kolkata). Among the clinical strains of Vibrio cholerae used in this study, strains NB2 and SG24(1) belonged to O1 and O139 serotypes, respectively. […] The bacterial strains were maintained on agar slant at 4 °C and subcultured on a fresh appropriate agar plates 24 h prior to any antibacterial test. The Mueller Hinton Agar (MHA) was used for the activation of bacteria. The Mueller Hinton Broth (MHB) and nutrient agar (Hi-Media) were used for the MIC and MBC determinations respectively.
(§2) MIC values were determined by a broth micro-dilution method as described earlier [14] with slight modifications. […] Then, 100 μl of each concentration was added in each well (96-well microplate) containing 95 μl of MHB and 5 μl of inoculums (at 1.5 × 10^6 CFU/ml) for final concentrations varying from 0.25–512 μg/ml. […] The plates were covered with sterile lids, then the contents of each well were mixed using a shaker and incubated at 35 °C for 24 h. […] MIC values were defined as the lowest sample concentrations that prevented this change in color indicating an inhibition of visible growth. Viable microorganisms reduced the yellow dye to a pink color. […] The lowest concentrations that yielded no growth after this subculturing were taken as the MBC values [15]. All the analyses were carried out in triplicate.

Vibrio cholerae CO6 = test: Broth microdilution MIC/MBC; type: cell-based; conditions: for MBC / MBC/MIC: CO6; for MIC: CO6, 24 h
Procedure: as §1, §2

Vibrio cholerae NB2 = test: Broth microdilution MIC/MBC; type: cell-based; conditions: for MBC / MBC/MIC: NB2
Procedure: as §1, §2

Vibrio cholerae PC2 = test: Broth microdilution MIC/MBC; type: cell-based; conditions: for MBC / MBC/MIC: PC2
Procedure: as §1, §2

Shigella flexneri SDINT = test: microbe, parasite or virus in culture; type: cell-based
Procedure: as §1, §2

[1] = test system: Staphylococcus aureus ATCC 25923; test: microbe, parasite or virus in culture; type: cell-based; conditions: for MBC / MIC: Staphylococcus aureus; for MBC: ATCC25923; for MIC: ATCC25923, 24 h
Procedure: as §1, §2

[2] = test system: Vibrio cholerae, Shigella flexneri and Staphylococcus aureus; test: Broth microdilution MIC/MBC, summary over all six tested strains; type: cell-based; conditions: for MIC: read-out: antibacterial activity class (pure compounds)
Procedure: as §1, §2

[3] = DPPH free radical scavenging assay; conditions: 30 min, room temperature, 517 nm
Procedure: The free radical scavenging activity of extracts as well as most of their isolated compounds was performed according to Brand-Williams et al. with slight modifications. Briefly, different concentrations (10 to 2000 μg/ml) of extracts/compounds and vitamin C (positive control) were thoroughly mixed with 3 ml of methanolic DPPH solution (20 mg/l) in test-tubes and the resulting solution was kept standing for 30 min at room temperature before the optical density (OD) was measured at 517 nm. The percentage radical scavenging activity was calculated from the following formula: % scavenging [DPPH] = [(A0–A1)/A0] × 100 [16]. Where A0 was the absorbance of the negative control (methanolic DPPH solution) and A1 was the absorbance in the presence of the samples. IC50 value was determined from the graph obtained using standard vitamin C by using the “y = mx + c” formula from the slope of the graph. All the analyses were carried out in triplicate.

[4] = Gallic acid equivalent antioxidant capacity (GAEAC) assay; conditions: ABTS/laccase, 420 nm, 240 s
Procedure: The GAEAC test was done as previously described [17] with slight modifications. In a quartz cuvette, to 950 μl acetate buffer (pH =5.0, 100 mM), the following were added: 20 μl laccase (1 mM stock solution), 20 μl test sample, 10 μl ABTS (2,2’-azinobis(3-ethylbenzothiazoline-6-sulfonic acid) (74 mM stock solution). The laccase were purified from Sclerotinia sclerotiorum according to the protocol described [18]. The sample concentrations in the assay mixture were 800, 400, 200, 100, 10 μg/ml for the extracts and 200, 100, 50, 25, 125.5 μg/ml for the isolated compounds. The content of the generated ABTS^●+ radical was measured at 420 nm after 240 s reaction time and was converted to gallic acid equivalents by the use of a calibration curve (Pearson’s correlation coefficient: r = 0.996) constructed with 0, 4, 10, 14, 28, 56, 84 μM gallic acid standards rather than Trolox. Experiments were done in triplicate.

| Compound | MBC (Vibrio cholerae SG24 (1)) | MIC (Vibrio cholerae SG24 (1)) | MBC (Vibrio cholerae CO6) | MBC/MIC (Vibrio cholerae CO6) | MIC (Vibrio cholerae CO6) | MBC (Vibrio cholerae NB2; Vibrio cholerae) | MBC/MIC (Vibrio cholerae NB2; Vibrio cholerae) | MIC (Vibrio cholerae NB2; Vibrio cholerae, NB2, 24 h) | MBC (Vibrio cholerae PC2; Vibrio cholerae) | MBC/MIC (Vibrio cholerae PC2; Vibrio cholerae) | MIC (Vibrio cholerae PC2; Vibrio cholerae, PC2, 24 h) | MBC/MIC (Shigella flexneri SDINT) | MBC (Shigella flexneri SDINT; Shigella flexneri) | MIC (Shigella flexneri SDINT; Shigella flexneri, 24 h) | MBC/MIC [1] | MBC [1] | MIC [1] | MIC [2] | further results |
| --- | --- | --- | --- | --- | --- | --- | --- | --- | --- | --- | --- | --- | --- | --- | --- | --- | --- | --- | --- |
| COC(=O)C1=COC(OC2OC(CO)C(O)C(O)C2O)C2C(COC(=O)C3=COC(OC(C)=O)C4C(C)CCC34)=CCC12 (stereo not drawn) [Compound 5a, canthiumoside 5a] | > 256 µg/mL | 256 µg/mL (≈ 419 µM) | 256 µg/mL (≈ 419 µM) | 2 | 128 µg/mL (≈ 210 µM) | 128 µg/mL (≈ 210 µM) | 1 | 128 µg/mL (≈ 210 µM) | 256 µg/mL (≈ 419 µM) | 2 | 128 µg/mL (≈ 210 µM) | 1 | 128 µg/mL (≈ 210 µM) | 128 µg/mL (≈ 210 µM) | 1 | 128 µg/mL (≈ 210 µM) | 128 µg/mL (≈ 210 µM) | > 100 µg/mL | – |
| COC(=O)C1=CO[C@@H](O)[C@H]2[C@@H]1[C@H](O)C[C@]2(C)O [compound 6] | 256 µg/mL (≈ 1050 µM) | 128 µg/mL (≈ 524 µM) | 256 µg/mL (≈ 1050 µM) | – | 256 µg/mL (≈ 1050 µM) | 256 µg/mL (≈ 1050 µM) | – | 256 µg/mL (≈ 1050 µM) | 256 µg/mL (≈ 1050 µM) | – | 128 µg/mL (≈ 524 µM) | – | 64 µg/mL (≈ 262 µM) | 32 µg/mL (≈ 131 µM) | – | 64 µg/mL (≈ 262 µM) | 32 µg/mL (≈ 131 µM) | > 100 µg/mL | – |
| COC(=O)C1=CO[C@@H](O)[C@@H]2C(COC(=O)C3=CO[C@@H](O)[C@@H]4C(COC(C)=O)=CC[C@H]34)=CC[C@H]12 [Compound 1, canthiumoside 1] | 128 µg/mL (≈ 277 µM) | 64 µg/mL (≈ 138 µM) | 64 µg/mL (≈ 138 µM) | 1 | 64 µg/mL (≈ 138 µM) | 64 µg/mL (≈ 138 µM) | 1 | 64 µg/mL (≈ 138 µM) | 64 µg/mL (≈ 138 µM) | 1 | 64 µg/mL (≈ 138 µM) | 2 | 64 µg/mL (≈ 138 µM) | 32 µg/mL (≈ 69.2 µM) | 1 | 32 µg/mL (≈ 69.2 µM) | 32 µg/mL (≈ 69.2 µM) | 10 to 100 µg/mL (≈ 21.6 to 216 µM) | MBC/MIC (Vibrio cholerae SG24 (1)): 2; EC50 (concentration scavenging 50% of DPPH radical) [3]: 2.03 µg/mL; GAEAC (gallic acid equivalent antioxidant capacity) [4]: 79.82 µg/mL; GAEAC (gallic acid equivalent antioxidant capacity) ([4]; listed as Canthiumoside 1): 79.82 to 92.35 µg/mL |
| COC(=O)C1=COC(OC2OC(CO)C(O)C(O)C2O)C2C(COC(=O)C3=COC(OC4OC(CO)C(O)C(O)C4O)C4C(COC(C)=O)=CCC34)=CCC12 (stereo not drawn) [Compound 3, canthiumoside 3] | – | > 256 µg/mL | 256 µg/mL (≈ 325 µM) | 2 | 128 µg/mL (≈ 163 µM) | 256 µg/mL (≈ 325 µM) | 1 | 256 µg/mL (≈ 325 µM) | > 256 µg/mL | – | 256 µg/mL (≈ 325 µM) | – | > 256 µg/mL | 256 µg/mL (≈ 325 µM) | – | > 256 µg/mL | 256 µg/mL (≈ 325 µM) | > 100 µg/mL | tested organisms inhibited [2]: 83.33% |
| CC1(C)S[C@@H]2[C@H](NC(=O)[C@H](N)c3ccccc3)C(=O)N2[C@H]1C(=O)O [Ampicillin, reference compound] | 16 µg/mL (≈ 45.8 µM) | 16 µg/mL (≈ 45.8 µM) | 16 µg/mL (≈ 45.8 µM) | 1 | 16 µg/mL (≈ 45.8 µM) | > 512 µg/mL | – | > 512 µg/mL | > 512 µg/mL | – | > 512 µg/mL | – | > 512 µg/mL | > 512 µg/mL | 1 | 8 µg/mL (≈ 22.9 µM) | 8 µg/mL (≈ 22.9 µM) | – | MBC/MIC (Vibrio cholerae SG24 (1)): 1; MIC (Vibrio cholerae NB2; Vibrio cholerae NB2, 35 °C, 24 h): not active; MIC (Vibrio cholerae PC2; Vibrio cholerae PC2, 35 °C, 24 h): not active; MIC (Shigella flexneri SDINT): not active |
| COC(=O)C1=COC(OC2OC(CO)C(O)C(O)C2O)C2C(COC(=O)C3=COC(OC4OC(CO)C(O)C(O)C4O)C4C(CO)=CCC34)=CCC12 (stereo not drawn) [Compound 4, canthiumoside 4] | – | – | – | – | – | – | – | – | – | – | – | – | – | – | – | – | – | – | EC50 (concentration scavenging 50% of DPPH radical) [3]: 178.57 µg/mL; GAEAC (gallic acid equivalent antioxidant capacity) [4]: 22.63 µg/mL |
| COC(=O)C1=CO[C@@H](O)[C@H]2[C@@H]1CC[C@]2(C)O [compound 7] | 64 µg/mL (≈ 280 µM) | 32 µg/mL (≈ 140 µM) | 128 µg/mL (≈ 561 µM) | – | 64 µg/mL (≈ 280 µM) | 32 µg/mL (≈ 140 µM) | – | 32 µg/mL (≈ 140 µM) | 32 µg/mL (≈ 140 µM) | – | 32 µg/mL (≈ 140 µM) | – | 16 µg/mL (≈ 70.1 µM) | 16 µg/mL (≈ 70.1 µM) | – | 8 µg/mL (≈ 35.1 µM) | 8 µg/mL (≈ 35.1 µM) | 10 to 100 µg/mL (≈ 43.8 to 438 µM) | – |
| COC(=O)C1=COC(OC2OC(CO)C(O)C(O)C2O)C2C1CCC2(C)O (stereo not drawn) [Compound 8, mussaenoside] | > 256 µg/mL | 256 µg/mL (≈ 656 µM) | 256 µg/mL (≈ 656 µM) | 1 | 256 µg/mL (≈ 656 µM) | > 256 µg/mL | – | 128 µg/mL (≈ 328 µM) | 256 µg/mL (≈ 656 µM) | 2 | 128 µg/mL (≈ 328 µM) | 2 | 256 µg/mL (≈ 656 µM) | 128 µg/mL (≈ 328 µM) | 2 | 128 µg/mL (≈ 328 µM) | 64 µg/mL (≈ 164 µM) | > 100 µg/mL | – |
| COC(=O)C1=CO[C@@H](O)[C@H]2[C@@H]1CC[C@]2(C)O [Compound 7, linearin] | – | – | – | – | – | – | – | – | – | – | – | – | – | – | – | – | – | – | MIC (range over the tested bacteria) ([2]; range over all tested strains): 8 to 64 µg/mL |
| O=C1O[C@H]([C@@H](O)CO)C(O)=C1O [vitamin C, reference compound] | – | – | – | – | – | – | – | – | – | – | – | – | – | – | – | – | – | – | EC50 (concentration scavenging 50% of DPPH radical) [3]: 1.74 µg/mL |
| COC(=O)C1=COC(O)C2C(COC(=O)C3=COC(OC4OC(CO)C(O)C(O)C4O)C4C(COC(C)=O)=CCC34)=CCC12 (stereo not drawn) [Compound 2, canthiumoside 2] | > 256 µg/mL | 256 µg/mL (≈ 410 µM) | 256 µg/mL (≈ 410 µM) | 2 | 128 µg/mL (≈ 205 µM) | 128 µg/mL (≈ 205 µM) | 1 | 128 µg/mL (≈ 205 µM) | 256 µg/mL (≈ 410 µM) | 1 | 256 µg/mL (≈ 410 µM) | 2 | 256 µg/mL (≈ 410 µM) | 128 µg/mL (≈ 205 µM) | 1 | 64 µg/mL (≈ 102 µM) | 64 µg/mL (≈ 102 µM) | > 100 µg/mL | – |
| COC(=O)C1=CO[C@@H](O[C@@H]2O[C@H](CO)[C@@H](O)[C@H](O)[C@H]2O)[C@H]2[C@@H]1[C@H](O)C[C@]2(C)O [Compound 9, shanzhiside methyl ester] | 128 µg/mL (≈ 315 µM) | 128 µg/mL (≈ 315 µM) | > 256 µg/mL | – | 128 µg/mL (≈ 315 µM) | 128 µg/mL (≈ 315 µM) | 1 | 128 µg/mL (≈ 315 µM) | 256 µg/mL (≈ 630 µM) | 1 | 256 µg/mL (≈ 630 µM) | 2 | 256 µg/mL (≈ 630 µM) | 128 µg/mL (≈ 315 µM) | 2 | 256 µg/mL (≈ 630 µM) | 128 µg/mL (≈ 315 µM) | > 100 µg/mL | MBC/MIC (Vibrio cholerae SG24 (1)): 1 |
